Measurements as given in patent US20180010132A1, “INHIBITION OF PRMT5 TO TREAT MTAP-DEFICIENCY-RELATED DISEASES” (NOVARTIS AG, priority 2014, published 2018).

How the values were obtained:
PRMT5 = PRMT5 (Homo sapiens, UniProt O14744); details: methylating the substrate E2-F-1; cited from earlier work
PRMT5/MEP50 complex = PRMT5/MEP50 complex (Homo sapiens, UniProt O14744); assay: LC/MS based biochemical histone methyltransferase assay
Procedure: Top: Schematic representation of multi-allele dual-selection assay with P2A or STOP insertion cassettes and crystal violet staining of cells. […] Profiling of the inhibitory activity (IC50) of adenosine and MTA across a panel of histone methyltransferases (HMTs) in an LC/MS based biochemical assay. MTA and adenosine display single digit μM activity against the PRMT5/MEP50 complex (red) but have no activity (IC50>100 μM) across all other HMTs tested. […] MIAPaCa2 cells stably expressing inducible shPRMT5-2 were transduced with pRetro empty vector control or with MTAP cDNA and proliferation assessed by confluence measurements using Incucyte. […] FIGS. 3 K and L show in vitro proliferation assay of PK1 MTAP isogenic cell lines generated from a non-targeting control sgRNA FIG. 3 K, PK1 CTRL; or with a sgRNA targeting MTAP 1, PK1 MTAP KO and stably expressing Dox-inducible PRMT5 (shPRMT5-2) with and without treatment with doxycycline (+/−Dox) over time (hours) as assessed by incucyte (n=24 per treatment condition). […] FIGS. 3 M and N show focus formation of PK1 (FIG. 3M), wild type (WT) and (FIG. 3N), MTAP knockout (MTAP KO) cells treated with DMSO or MTA at concentrations as indicated.

PRMT5/MEP50 complex, sequence (O14744 whole entry): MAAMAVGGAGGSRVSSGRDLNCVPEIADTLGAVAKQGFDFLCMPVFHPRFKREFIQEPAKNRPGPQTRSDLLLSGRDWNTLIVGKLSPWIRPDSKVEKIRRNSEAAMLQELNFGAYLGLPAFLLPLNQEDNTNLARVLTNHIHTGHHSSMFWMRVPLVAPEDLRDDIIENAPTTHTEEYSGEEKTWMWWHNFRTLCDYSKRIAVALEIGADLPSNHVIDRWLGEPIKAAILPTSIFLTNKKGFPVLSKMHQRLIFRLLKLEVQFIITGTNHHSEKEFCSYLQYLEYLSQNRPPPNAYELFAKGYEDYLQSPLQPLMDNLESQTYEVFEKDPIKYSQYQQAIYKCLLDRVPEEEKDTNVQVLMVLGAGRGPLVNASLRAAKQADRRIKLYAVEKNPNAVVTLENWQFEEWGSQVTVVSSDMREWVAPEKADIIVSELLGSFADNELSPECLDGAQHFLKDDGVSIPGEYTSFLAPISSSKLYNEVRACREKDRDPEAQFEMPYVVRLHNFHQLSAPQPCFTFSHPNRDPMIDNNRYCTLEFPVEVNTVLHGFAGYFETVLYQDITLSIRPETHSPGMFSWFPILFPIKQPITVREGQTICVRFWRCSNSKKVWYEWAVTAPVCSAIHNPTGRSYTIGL
PRMT5/MEP50 complex, sequence (Q9BQA1 whole entry partner): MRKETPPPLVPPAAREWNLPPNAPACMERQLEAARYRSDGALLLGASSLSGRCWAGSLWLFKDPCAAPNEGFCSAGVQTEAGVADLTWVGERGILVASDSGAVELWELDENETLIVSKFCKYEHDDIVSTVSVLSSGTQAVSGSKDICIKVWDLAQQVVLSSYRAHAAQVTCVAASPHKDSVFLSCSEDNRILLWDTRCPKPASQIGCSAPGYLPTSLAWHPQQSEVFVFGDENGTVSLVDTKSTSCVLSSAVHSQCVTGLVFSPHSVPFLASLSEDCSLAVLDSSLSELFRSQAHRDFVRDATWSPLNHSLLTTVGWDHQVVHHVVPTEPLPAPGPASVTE
PRMT5, sequence (O14744 whole entry): as the sequence (O14744 whole entry) above
PRMT5, sequence (Q9BQA1 whole entry partner): as the sequence (Q9BQA1 whole entry partner) above

inhibitory activity (IC50) (PRMT5/MEP50 complex) | SMILES | PRMT5 activity (PRMT5)
– | Nc1ncnc2c1ncn2[C@@H]1O[C@H](C[C@@H](N)CC[C@H](N)C(=O)O)C(O)C1O (stereo in doubt) [Sinefungin, 5′-Deoxy-5′-(1,4-diamino-4-carboxybutyl)adenosine] | inhibits
single digit | CSC[C@H]1O[C@@H](n2cnc3c(N)ncnc32)[C@H](O)[C@@H]1O [MTA, methyl-thioadenosine] | –
single digit | Nc1ncnc2c1ncn2[C@@H]1O[C@H](CO)[C@@H](O)[C@H]1O [adenosine] | –
